Source: publication PMC12647599 (Nature Communications, 2025)

Columns and labels:
[1] = test system: RtHYC3O; test: LC-MS/MS product assay, non-linear regression; type: biochemical, Rauvolfia tetraphylla; details: 20 mM Tris-HCl pH 7.5, 30 °C, 10 min; air O2; FAD enzyme
[2] = molecular target: T1, CrHYC3R (THAS3) (Catharanthus roseus, UniProt A0A1B1FHP1); test: LC-MS/MS relative activity, yeast lysate; type: biochemical; details: 1 mM NADPH, 20 mM Tris-HCl pH 7.5, 30 °C, 4 h
T1 sequence (A0A1B1FHP1 1-377): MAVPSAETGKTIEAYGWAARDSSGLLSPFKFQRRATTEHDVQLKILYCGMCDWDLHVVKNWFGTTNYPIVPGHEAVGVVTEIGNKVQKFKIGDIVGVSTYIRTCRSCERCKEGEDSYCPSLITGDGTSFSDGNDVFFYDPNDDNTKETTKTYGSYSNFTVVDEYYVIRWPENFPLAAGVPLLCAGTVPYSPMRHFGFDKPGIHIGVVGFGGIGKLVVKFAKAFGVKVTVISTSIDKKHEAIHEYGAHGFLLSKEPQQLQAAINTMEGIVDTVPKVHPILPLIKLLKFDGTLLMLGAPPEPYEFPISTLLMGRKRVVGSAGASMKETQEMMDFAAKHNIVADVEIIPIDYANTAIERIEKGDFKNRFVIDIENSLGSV

| Km [1] [nM] | SMILES | LC-MS/MS relative activity, yeast lysate [2] |
| --- | --- | --- |
| 1150 | COC(=O)[C@H]1[C@H]2C[C@H]3c4[nH]c5ccccc5c4CCN3C[C@H]2CC[C@@H]1O [rauwolscine] |  |
|  | COC(=O)[C@@H]1[C@H]2CC3=[N+](CCc4c3[nH]c3ccccc43)C[C@@H]2CC[C@@H]1O [3-dehydro-yohimbine] | efficiently reduced 3-dehydro intermediates of yohimbine and heteroyohimbine types |
